Assay results taken from patent US9745288B2, “Compounds and methods for treating cancer by inhibiting the urokinase receptor” (Indiana University Research and Technology Corporation, priority 2011, dated 2017).
Where two headings read alike, the source gives them in different places.

Experiments:
[1] = molecular target: T1, uPAR (Homo sapiens, UniProt Q03405); experiment: Fluorescence polarization assay, displacement of AE147-FAM peptide from uPAR; format: binding
T1 construct: human uPAR (suPAR, amino acids 1-283) was expressed in stably transfected Drosophila S2 cells; made in house; host or cells: Drosophila S2 cells
T1 sequence (Q03405 23-305): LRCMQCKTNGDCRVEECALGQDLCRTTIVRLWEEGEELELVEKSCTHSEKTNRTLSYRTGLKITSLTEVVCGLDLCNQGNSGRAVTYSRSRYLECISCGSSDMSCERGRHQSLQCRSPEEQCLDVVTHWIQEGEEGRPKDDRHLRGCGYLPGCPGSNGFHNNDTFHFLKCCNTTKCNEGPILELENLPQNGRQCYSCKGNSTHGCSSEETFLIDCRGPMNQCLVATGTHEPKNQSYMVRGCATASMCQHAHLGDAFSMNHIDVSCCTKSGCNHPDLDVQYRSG
Protocol: Fluorescence Polarization Assay. The fluorescence polarization assay used fluorescent AE147-FAM peptide. uPAR was titrated against the fluorescent AE147-FAM peptide and data were fit to a sigmoidal dose-dependent curve as the FP value increases to determine the Kd of binding using Sigmaplot (Systat Software Inc., CA). Inhibitor screens were carried out in triplicates using 500 nM uPAR, 100 nM AE147-FAM, and inhibitor concentrations ranging from 0.78 μM to 100 μM in 50 μL volumes in black BD Falcon 384-well microplate. […] Polarized fluorescence intensities were measured immediately following addition of inhibitors to the protein-peptide mix at room temperature on an EnVision® Multilabel Plate Readers (PerkinElmer) with excitation and emission wavelengths of 485 nm and 530 nm, respectively.
Cloning, Expression and Purification of uPAR. uPAR was successfully cloned, expressed and purified. From 1 L of culture, nearly 12 mg of protein was expressed, which will be sufficient to conduct the experiments disclosed herein. Briefly, a truncated, soluble form of human uPAR (suPAR, amino acids 1-283) was expressed in stably transfected Drosophila S2 cells using the Drosophila Expression System (Invitrogen). suPAR was obtained by a two-step purification process. The conditioned culture medium was filtered (0.45 μm) and loaded onto a DEAE Sephadex column equilibrated with 20 mM Tris (pH 7.4). The protein was eluted with a gradient of 0-1 M NaCl in 20 mM Tris (pH 7.4). suPAR containing fractions were then pooled, concentrated, and filtered prior to RP-HPLC using a semi-preparative (10×25 cm) C8 column. A 1 mL aliquot of the concentrated protein was loaded onto the column at initial gradient conditions of 95% eluent A and 5% eluent B, where eluent A was 0.1% TFA/100% H2O and eluent B was 70:30 acetonitrile/[…]. The protein elutes using a gradient of 5% eluent A to 95% eluent B over 46 minutes at a flow rate of 4 mL/min. Under these conditions, the protein eluted as a single sharp peak (tR=29 min). […] Surface plasmon resonance confirmed that the purified uPAR was capable of binding to uPA. The identity of the 60 kDa band was established by immunoblot (not shown).
The design of a fluorescent probe was guided by the three-dimensional structure of uPAR in complex with peptide AE147.^27 As this peptide binds at the same site that is occupied by the growth factor-like domain of uPA, it provides the basis for the development of a competition assay to assess binding to this site. Flurescein was introduced to the N-terminus of AE147.
All 210 compounds were screened at initial concentration of 50 μM for displacement of AE147-FAM peptide. Eleven compounds gave polarization readings that were five times that of the standard deviation of the control peptide (FIG. 1B). Secondary concentration-dependent study for these eleven compounds was performed.
The resulting inhibition curves were used to determine an inhibition constant, Ki, for each.

[2] = tested on: human umbilical vein endothelial cells (HUVEC); experiment: Matrigel-based tube formation (angiogenesis) assay; format: cell-based; conditions: HUVEC in Matrigel
[3] = tested on: MDA-MB-231 cells; experiment: MTT proliferation assay; format: cell-based, human; conditions: read-out: IC50 of cell proliferation (MTT)
Protocol: Proliferation Assay. The procedure consisted of culturing cells at 37° C. in 10% FBS-DMEM medium containing various amounts of compound. 5 mM compound stock in 100% DMSO was 1:50 diluted in medium, filtered, and serially diluted in 96-well plate. Then seeded cells were incubated for 3 days. Viable cells were quantified by MTT assay at absorbance of 570 and 630 nm.
(§1) FIGS. 4A-4D show inhibition of MDA-MB-231 proliferation and mechanism of cell killing. To gain insight into the mechanism by which these compounds are inhibiting growth, a flow cytometry analysis with annexin V-FITC and PI staining was performed. The level of apoptotic cells in MDA-MB-231 was assessed by the percentage of Annexin V-positive/PI-negative cells present after exposure of MDAMB-231 cells to increasing concentration of IPR-69 for 24 h (FIG. 4B). At a concentration of 50 μM, IPR-69 induced significant apoptosis as evidenced by a 51% and 21% increase in apoptotic cells (Annexin V positive/PI-negative) and necrotic cells (Annexin V-positive/PI-positive), respectively. […] At a concentration of 50 μM, 26% of cells were necrotic (Annexin V positive/PI-positive), a 22% increase over control. 46% of cells were apoptotic (Annexin V positive/PInegative), compared with 4% of control.

[4] = tested on: MDA-MB-231 cells; experiment: Apoptosis assay, flow cytometry with Annexin V-FITC and PI staining; format: cell-based, human; conditions: 50 μM
Protocol: Apoptosis Assay. MDA-MB-231 cells were cultured in DMEM medium supplemented with 10% FBS, 100 IU/mL penicillin and 50 μg/mL streptomycin in a humidified atmosphere containing 5% CO2 at 37° C. and grew to 80-90% confluence in P-60 mm plates, then treated with various amounts of compounds or 1% DMSO (as control) for different time points. Collected the supernatants and washed the cells with 1×PBS twice and collected. The cells were detached by using cellstripper (Mediatech Inc, VA), and washed twice with cold 1× PBS and resuspended in 1× binding buffer (Cat. PNN1001, Invitrogen Corporation, Camarillo, Calif.) at a concentration of 1×10^6 cells/mL. Transferred 100 μL of the solution (1×10^5 cells) to a 5 mL culture tube. Added 5 μL of Recombinant Human Annexin V FITC conjugate (Cat. ANNEXINV01, Invitrogen) and 5 μL of propidium iodide solution (Cat. P4864, Sigma-Aldrich, St. Louis, Mo.). Gently vortexed the cells and incubated for 15 min at room (25° C.) in the dark. Added 400 μL of 1× binding buffer to each tube. Analyzed by flow cytometry (FACScan).
as §1

[5] = Homo sapiens, MDA-MB-231, MDA-MB-231

Structure (SMILES): Cc1cc(C)cc(NC(=O)c2cnn(-c3ccc(C(C)C)cc3)c2C2CCNCC2)c1 [IPR-69, N-(3,5-dimethylphenyl)-1-(4-isopropylphenyl)-5-(piperidin-4-yl)-1H-pyrazole-4-carboxamide]
- Ki ([1]; from concentration-dependent inhibition curves, read-out: inhibition constant, Ki): 30 µM
- IC50 [2]: 3 µM
- IC50 [3, 5]: 18 µM
- IC50 ([3]; MDA-MB-231): 17 µM
- increase in necrotic cells (Annexin V-positive/PI-positive) [4]: 21%
- increase in apoptotic cells (Annexin V positive/PI-negative) ([4]; 24 h): 51%

Structure (SMILES): CN(C)c1ccc(CNCCC(Cc2ccccc2)c2ccc3c(c2)OCO3)cc1 (racemic) [IPR-9, 4-(((3-(benzo[d][1,3]dioxol-5-yl)-4-phenylbutyl)amino)methyl)-N,Ndimethylaniline]
- IC50 ([1]; Table 1, assay not stated): 24.4 µM
- Ki ([1]; Table 1, assay not stated, read-out: Ki): 7.4 µM
- IC50 [2]: 3 µM
- IC50 [3, 5]: 6 µM
- increase in necrotic cells (Annexin V-positive/PI-positive) [4]: 22%
- apoptotic cells (Annexin V positive/PI-negative) ([4]; percent of cells): 46%
- necrotic cells (Annexin V positive/PI-positive) ([4]; percent of cells): 26%
